We go through 25 substances from patent publication US20240393292A1, “ALLERGY ANTIGEN AND EPITOPE THEREOF” (HOYU CO., LTD., priority 2019, published 2024).

In this assay the test system is IgE antibodies from patients. Kind of assay: Wheat epitope mapping (2): overlapping 10-amino-acid peptide fragments shifted by one amino acid.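 Note: key of grades: preferably = shorter partial sequence still acting as epitope; more preferably = sequence improving IgE binding; key = particularly important sequence.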 The format is binding, human. An outline of the steps: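 Residual binding was banded as <30% none, 30–<50% poor, 50–<70% somewhat poor and ≥70% retained, relative to the parent overlapping sequence set to 100%. Values were chemiluminescent IgE signals from patient sera after subtracting secondary-antibody-only controls. The peptides were spot-synthesised 10-mers shifted by one amino acid.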

Take “1897 (VPLVQQ; REGION 1..6: note = epitope) [compound 1897]”: the “epitope sequence binding to IgE antibody, rank (Key/Preferably/More preferably)” value (serum of patient P2 (WDEIA)) is “Key”.
The same measure, in the same setting: to “1898 (QQFPGQQQ; REGION 1..8: note = epitope) [compound 1898]” belongs “Key”.
“1900 (QVPLVQQ; REGION 1..7: note = epitope) [compound 1900]”: the “epitope sequence binding to IgE antibody, rank (Key/Preferably/More preferably)” value (serum of patient P3 (WDEIA)) was “Preferably”.
The same measure, in the same setting: to “1901 (VPLVQ; REGION 1..5: note = epitope) [compound 1901]” belongs “Key”; to “1902 (QQFPGQQ; REGION 1..7: note = epitope) [compound 1902]”, “Key”.
Turning to “1904 (QVPLVQQ; REGION 1..7: note = epitope) [compound 1904]”, under “serum of patient P4 (WDEIA)”, the “epitope sequence binding to IgE antibody, rank (Key/Preferably/More preferably)” value was “Preferably”.
Same read-out and setting: to “1905 (VPLVQ; REGION 1..5: note = epitope) [compound 1905]” belongs “Key”.
On the same count and under the same terms, next, “1906 (QFPGQQQ; REGION 1..7: note = epitope) [compound 1906]”: “Key”.
On to “1908 (QVPLVQQ; REGION 1..7: note = epitope) [compound 1908]”, for which the “epitope sequence binding to IgE antibody, rank (Key/Preferably/More preferably)” value (serum of patient P7 (WDEIA)) is listed as “Preferably”.
On the same count and under the same terms, to “1909 (VPLVQ; REGION 1..5: note = epitope) [compound 1909]” belongs “Key”.
In the case of “1910 (QFPGQQQ; REGION 1..7: note = epitope) [compound 1910]”, the “epitope sequence binding to IgE antibody, rank (Key/Preferably/More preferably)” value (serum of patient P7 (WDEIA)) is “Key”.
Consider “1912 (QVPLVQQQ; REGION 1..8: note = epitope) [compound 1912]”, for which the “epitope sequence binding to IgE antibody, rank (Key/Preferably/More preferably)” value (serum of patient P8 (WDEIA)) is reported as “Preferably”.
The same measure, in the same setting: next, “1913 (QVPLVQQ; REGION 1..7: note = epitope) [compound 1913]”: “Key”; “1914 (QQFPGQQ; REGION 1..7: note = epitope) [compound 1914]”: “Key”.
In the case of “1915 (QVPLVQQQQ; REGION 1..9: note = epitope) [compound 1915]”, for the setting “serum of patient P9 (WDEIA)”, the “epitope sequence binding to IgE antibody, rank (Key/Preferably/More preferably)” value is given as “Key”.
Regarding “1916 (QQQQFPGQQQ; REGION 1..10: note = epitope) [compound 1916]”, the “epitope sequence binding to IgE antibody, rank (Key/Preferably/More preferably)” value (serum of patient P9 (WDEIA)) is listed as “Key”.
As for “1918 (QVPLVQQQQ; REGION 1..9: note = epitope) [compound 1918]”, where the note is “serum of patient P10 (WDEIA)”, the “epitope sequence binding to IgE antibody, rank (Key/Preferably/More preferably)” value is recorded as “Preferably”.
Regarding “1919 (VPLVQQQ; REGION 1..7: note = epitope) [compound 1919]”, the “epitope sequence binding to IgE antibody, rank (Key/Preferably/More preferably)” value (serum of patient P10 (WDEIA)) is recorded as “Key”.
On the same count and under the same terms, next, “1920 (LVQQQQFPGQ; REGION 1..10: note = epitope) [compound 1920]”: “Key”.
Turning to “1921 (QVPLVQQQ; REGION 1..8: note = epitope) [compound 1921]”, the “epitope sequence binding to IgE antibody, rank (Key/Preferably/More preferably)” value (serum of patient P12 (WDEIA)) is recorded as “Preferably”.
For “1922 (QVPLVQQ; REGION 1..7: note = epitope) [compound 1922]”, the “epitope sequence binding to IgE antibody, rank (Key/Preferably/More preferably)” value (serum of patient P12 (WDEIA)) is listed as “Key”.
Still for that read-out and setting: to “1923 (QQFPGQQQ; REGION 1..8: note = epitope) [compound 1923]” belongs “Preferably”; to “1924 (FPGQQ; REGION 1..5: note = epitope) [compound 1924]”, “Key”.
Take “1925 (QFPGQQ; REGION 1..6: note = epitope) [compound 1925]”: the “epitope sequence binding to IgE antibody, rank (Key/Preferably/More preferably)” value (serum of patient P13 (WDEIA)) is recorded as “Key”.
As for “1926 (QQQFPGQQQ; REGION 1..9: note = epitope) [compound 1926]”, under “serum of patient P14 (WDEIA)”, the “epitope sequence binding to IgE antibody, rank (Key/Preferably/More preferably)” value is listed as “Preferably”.
